The source of these data is patent US5863915A, “Substituted 4-arylbutyric acid derivatives as matrix metalloprotease” (Bayer Corporation, priority 1997, dated 1999).

The subject of test [1] is MMP-3, MMP-9 and MMP-2. Put plainly: MMP profiling assay, overall comparison of the three MMPs (Table 5 data). In kind it is biochemical, human. The conditions noted are these: for MMP inhibition activity in words: substituent size on the 4-phenyl ring; for selectivity of activity among the MMP's, in words: MMP-2 and MMP-9 vs MMP-3. The source says: MMP Microfluorometric Profiling Assay
IC50 Determination in Microfluorometric Assay
((Control values-Treated Values)/Control Values)×100

Test [2] relates to human ovarian carcinoma xenografts. The conditions noted are these: mouse, in vivo; cited from earlier work.
Test [3] concerns human colon tumor. The settings on record: given intraperitoneally; orthotopic model in nude mice; cited from earlier work.

Regarding `O=C(CC(CCN1C(=O)c2ccccc2C1=O)C(=O)O)c1ccc(Br)cc1` (centres unmarked) [Compound B, 4-(4-bromophenyl)-4-oxo-2-(2-phthalimidoethyl) butyric acid], in test [1], the “MMP inhibition activity in words” value is given as “activities are low”.
On the same count and under the same terms, under `O=C(CC(CCN1C(=O)c2ccccc2C1=O)C(=O)O)c1ccccc1` (centres unmarked) [Compound D, 4-phenyl-4-oxo-2-(2-phthalimidoethyl)butyric acid] stands “activities are low”; under `CCCCCCCCCCCCCCOc1ccc(C(=O)CC(CCN2C(=O)c3ccccc3C2=O)C(=O)O)cc1` (centres unmarked) [Compound F, 4-(4-tetradecyloxyphenyl)-4-oxo-2-(2-phthalimidoethyl)butyric acid], “activity is also low”.
For `COc1ccc(C(=O)CC(CCN2C(=O)c3ccccc3C2=O)C(=O)O)cc1` (centres unmarked) [Compound G, 4-(4-methoxyphenyl)-4-oxo-2-(2-phthalimidoethyl)butyric acid], in test [1], the “MMP inhibition activity in words” value is “activities are low”.
As to `CCCCCCCOc1ccc(C(=O)CC(CCN2C(=O)c3ccccc3C2=O)C(=O)O)cc1` (centres unmarked) [Example 10, 4-(4-heptyloxyphenyl)4-oxo-2-(2-phthalimidoethyl) butyric acid], the “selectivity of activity among the MMP's, in words” value in test [1] is recorded as “broad high activity”.
Same read-out and setting: next, `CCCCCCOc1ccc(C(=O)CC(CCN2C(=O)c3ccccc3C2=O)C(=O)O)cc1` (centres unmarked) [Example 11, 4-(4-hexyloxyphenyl)-4-oxo-2-(2-phthalimidoethyl) butyric acid]: “broad high activity”.
As for `CNC(=O)[C@H](Cc1ccccc1)NC(=O)[C@H](CC(C)C)[C@H](CSc1cccs1)C(=O)NO` [batimastat], in test [2], the “survival of mice bearing human ovarian carcinoma xenografts” value was “prolongs the survival of mice”. In test [3], the “human colon tumor growth and spread” value is “inhibits human colon tumor growth and spread”.
